Test results as given in ChEMBL document CHEMBL2413072, “Synthesis and in vitro anticancer studies of novel C-2 arylidene congeners of lantadenes” (2013).

Experiments:
Type in all cases: functional
KM12 = assay: Growth inhibition of human KM12 cells by sulforhodamine B assay
HCT-116 = assay: Growth inhibition of human HCT116 cells by sulforhodamine B assay
NCI-H226 = assay: Growth inhibition of human NCI-H226 cells by sulforhodamine B assay
K562 [1] = assay: Growth inhibition of human K562 cells by sulforhodamine B assay
UACC-257 [2] = assay: Growth inhibition of human UACC257 cells assessed as cell growth at 10^-8 M by sulforhodamine B assay; conditions: read-out: Activity
SK-MEL-28 [3] = assay: Growth inhibition of human SK-MEL-28 cells assessed as cell growth at 10^-8 M by sulforhodamine B assay; conditions: read-out: Activity
Malme-3M = assay: Growth inhibition of human MALME-3M cells assessed as cell growth at 10^-8 M by sulforhodamine B assay; conditions: read-out: Activity
COLO 205 = assay: Growth inhibition of human COLO205 cells assessed as cell growth at 10^-8 M by sulforhodamine B assay; conditions: read-out: Activity
NCI-H322M = assay: Growth inhibition of human NCI-H322M cells assessed as cell growth at 10^-8 M by sulforhodamine B assay; conditions: read-out: Activity
ACHN [4] = assay: Growth inhibition of human ACHN cells by sulforhodamine B assay
UACC-62 [5] = assay: Growth inhibition of human UACC62 cells by sulforhodamine B assay
SK-MEL-2 = assay: Growth inhibition of human SK-MEL-2 cells by sulforhodamine B assay
MDA-MB-231 [6] = assay: Growth inhibition of human MDA-MB-231 cells assessed as cell growth at 10^-4 M by sulforhodamine B assay; conditions: read-out: Activity
SN12C [7] = assay: Growth inhibition of human SN12C cells assessed as cell growth at 10^-4 M by sulforhodamine B assay; conditions: read-out: Activity
A498 = assay: Growth inhibition of human A498 cells assessed as cell growth at 10^-4 M by sulforhodamine B assay; conditions: read-out: Activity
OVCAR-3 = assay: Growth inhibition of human OVCAR3 cells assessed as cell growth at 10^-4 M by sulforhodamine B assay; conditions: read-out: Activity
UACC-257 [8] = assay: Growth inhibition of human UACC257 cells assessed as cell growth at 10^-4 M by sulforhodamine B assay; conditions: read-out: Activity
SK-MEL-28 [9] = assay: Growth inhibition of human SK-MEL-28 cells assessed as cell growth at 10^-4 M by sulforhodamine B assay; conditions: read-out: Activity
M14 = assay: Growth inhibition of human M14 cells assessed as cell growth at 10^-4 M by sulforhodamine B assay; conditions: read-out: Activity
SR [10] = assay: Growth inhibition of human SR cells assessed as cell growth at 10^-4 M by sulforhodamine B assay; conditions: read-out: Activity
K562 [11] = assay: Growth inhibition of human K562 cells assessed as cell growth at 10^-4 M by sulforhodamine B assay; conditions: read-out: Activity
MDA-MB-468 [12] = assay: Growth inhibition of human MDA-MB-468 cells assessed as cell growth at 10^-6 M by sulforhodamine B assay; conditions: read-out: Activity
MDA-MB-231 [13] = assay: Growth inhibition of human MDA-MB-231 cells assessed as cell growth at 10^-6 M by sulforhodamine B assay; conditions: read-out: Activity
RXF 393 = assay: Growth inhibition of human RXF393 cells assessed as cell growth at 10^-6 M by sulforhodamine B assay; conditions: read-out: Activity
ACHN [14] = assay: Growth inhibition of human ACHN cells assessed as cell growth at 10^-6 M by sulforhodamine B assay; conditions: read-out: Activity
SK-OV-3 = assay: Growth inhibition of human SKOV3 cells assessed as cell growth at 10^-6 M by sulforhodamine B assay; conditions: read-out: Activity
[15] = Growth inhibition of human NCI-ADR-RES cells assessed as cell growth at 10^-6 M by sulforhodamine B assay; conditions: read-out: Activity
UACC-257 [16] = assay: Growth inhibition of human UACC257 cells assessed as cell growth at 10^-6 M by sulforhodamine B assay; conditions: read-out: Activity
HT-29 = assay: Growth inhibition of human HT-29 cells assessed as cell growth at 10^-6 M by sulforhodamine B assay; conditions: read-out: Activity
NCI-H23 = assay: Growth inhibition of human NCI-H23 cells assessed as cell growth at 10^-6 M by sulforhodamine B assay; conditions: read-out: Activity
SR [17] = assay: Growth inhibition of human SR cells assessed as cell growth at 10^-6 M by sulforhodamine B assay; conditions: read-out: Activity
CCRF-CEM = assay: Growth inhibition of human CCRF-CEM cells assessed as cell growth at 10^-6 M by sulforhodamine B assay; conditions: read-out: Activity
[18] = Growth inhibition of human Hs 578T cells assessed as cell growth at 10^-7 M by sulforhodamine B assay; conditions: read-out: Activity
UACC-62 [19] = assay: Growth inhibition of human UACC62 cells assessed as cell growth at 10^-7 M by sulforhodamine B assay; conditions: read-out: Activity
U-251 = assay: Growth inhibition of human U251 cells assessed as cell growth at 10^-7 M by sulforhodamine B assay; conditions: read-out: Activity
NCI-H522 = assay: Growth inhibition of human NCI-H522 cells assessed as cell growth at 10^-7 M by sulforhodamine B assay; conditions: read-out: Activity
HOP-92 = assay: Growth inhibition of human HOP92 cells assessed as cell growth at 10^-7 M by sulforhodamine B assay; conditions: read-out: Activity
HL-60(TB) = assay: Growth inhibition of human HL-60(TB) cells assessed as cell growth at 10^-7 M by sulforhodamine B assay; conditions: read-out: Activity
MDA-MB-468 [20] = assay: Growth inhibition of human MDA-MB-468 cells assessed as cell growth at 10^-8 M by sulforhodamine B assay; conditions: read-out: Activity
BT-549 = assay: Growth inhibition of human BT549 cells assessed as cell growth at 10^-8 M by sulforhodamine B assay; conditions: read-out: Activity
SN12C [21] = assay: Growth inhibition of human SN12C cells assessed as cell growth at 10^-8 M by sulforhodamine B assay; conditions: read-out: Activity
[22] = read-out: LC50 (the source's name)
[23] = read-out: pLC50 (the source's name) (converted)

CC(C)=CC(=O)O[C@@H]1CC(C)(C)C[C@H]2C3=CC[C@@H]4[C@@]5(C)CC[C@H](O)C(C)(C)[C@@H]5CC[C@@]4(C)[C@]3(C)CC[C@@]12C(=O)O [Reduced Lantadene B]
GI50 (KM12; read-out: GI50): 0.862 µM | LC50 (50% net cell kill) (KM12; read-out: LC50): > 100 µM | TGI (KM12; read-out: TGI): 19.6 µM | GI50 (KM12; read-out: pGI50 (converted)): 0.871 µM | LC50 (50% net cell kill) (KM12; read-out: pLC50 (converted)): > 100 µM | TGI (KM12; read-out: pTGI (converted)): 19.5 µM | GI50 (HCT-116; read-out: GI50): 2.67 µM | LC50 (HCT-116; read-out: LC50): 50.2 µM | TGI (HCT-116; read-out: TGI): 15.9 µM | GI50 (HCT-116; read-out: pGI50 (converted)): 2.69 µM | LC50 (HCT-116; read-out: pLC50 (converted)): 50.1 µM | TGI (HCT-116; read-out: pTGI (converted)): 15.8 µM | GI50 (NCI-H226; read-out: GI50): 5.09 µM | LC50 (NCI-H226; read-out: LC50): 86 µM | TGI (NCI-H226; read-out: TGI): 24.2 µM | GI50 (NCI-H226; read-out: pGI50 (converted)): 5.13 µM | LC50 (NCI-H226; read-out: pLC50 (converted)): 85.1 µM | TGI (NCI-H226; read-out: pTGI (converted)): 24 µM | GI50 (K562 [1]; read-out: GI50): 3.38 µM | LC50 (K562 [1]; read-out: LC50): > 100 µM | TGI (K562 [1]; read-out: TGI): 93.1 µM | GI50 (K562 [1]; read-out: pGI50 (converted)): 3.39 µM | LC50 (K562 [1]; read-out: pLC50 (converted)): > 100 µM | TGI (K562 [1]; read-out: pTGI (converted)): 93.3 µM | growth at 0.01 µM (UACC-257 [2]): 96% | growth at 0.01 µM (SK-MEL-28 [3]): 100% | growth at 0.01 µM (Malme-3M): 94% | growth at 0.01 µM (COLO 205): 107% | growth at 0.01 µM (NCI-H322M): 90% | GI50 (ACHN [4]; read-out: GI50): 2.93 µM | CC50 (ACHN [4]; [22]): 58.5 µM | TGI (ACHN [4]; read-out: TGI): 20.4 µM | GI50 (ACHN [4]; read-out: pGI50 (converted)): 2.95 µM | CC50 (ACHN [4]; [23]): 58.9 µM | TGI (ACHN [4]; read-out: pTGI (converted)): 20.4 µM | GI50 (UACC-62 [5]; read-out: GI50): 1.95 µM | CC50 (UACC-62 [5]; [22]): 25.2 µM | TGI (UACC-62 [5]; read-out: TGI): 5.48 µM | GI50 (UACC-62 [5]; read-out: pGI50 (converted)): 1.95 µM | CC50 (UACC-62 [5]; [23]): 25.1 µM | TGI (UACC-62 [5]; read-out: pTGI (converted)): 5.5 µM | GI50 (SK-MEL-2; read-out: GI50): 9.34 µM | CC50 (SK-MEL-2; [22]): 67 µM | TGI (SK-MEL-2; read-out: TGI): 25.4 µM | GI50 (SK-MEL-2; read-out: pGI50 (converted)): 9.33 µM | CC50 (SK-MEL-2; [23]): 67.6 µM | TGI (SK-MEL-2; read-out: pTGI (converted)): 25.7 µM | growth at 100 µM (MDA-MB-231 [6]): -79% | growth at 100 µM (SN12C [7]): -91% | growth at 100 µM (A498): -90% | growth at 100 µM (OVCAR-3): -83% | growth at 100 µM (UACC-257 [8]): -34% | growth at 100 µM (SK-MEL-28 [9]): -64% | growth at 100 µM (M14): -69% | growth at 100 µM (SR [10]): -26% | growth at 100 µM (K562 [11]): -1% | growth at 1 µM (MDA-MB-468 [12]): 77% | growth at 1 µM (MDA-MB-231 [13]): 85% | growth at 1 µM (RXF 393): 93% | growth at 1 µM (ACHN [14]): 64% | growth at 1 µM (SK-OV-3): 104% | growth at 1 µM [15]: 90% | growth at 1 µM (UACC-257 [16]): 98% | growth at 1 µM (HT-29): 89% | growth at 1 µM (NCI-H23): 91% | growth at 1 µM (SR [17]): 92% | growth at 1 µM (CCRF-CEM): 75% | growth at 0.1 µM [18]: 97% | growth at 0.1 µM (UACC-62 [19]): 90% | growth at 0.1 µM (U-251): 96% | growth at 0.1 µM (NCI-H522): 102% | growth at 0.1 µM (HOP-92): 87% | growth at 0.1 µM (HL-60(TB)): 105% | growth at 0.01 µM (MDA-MB-468 [20]): 92% | growth at 0.01 µM (BT-549): 97% | growth at 0.01 µM (SN12C [21]): 101%
